{"source": "paper PMC11121837", "about": "“Impact of Nitric Oxide-Release Kinetics on Antifungal Activity” (Journal of Fungi, 2024)", "key": {"[1]": {"tested_on": "C. neoformans (ATCC208821)", "format": "cell-based, Cryptococcus neoformans"}, "[2]": {"tested_on": "C. albicans (ATCC MYA-2876)", "assay": "Checkerboard assay of NO donors with antifungals", "format": "cell-based, Candida albicans"}, "[3]": {"tested_on": "Aspergillus fumigatus spores", "assay": "Susceptibility assay for sporulating fungi (MIC, EUCAST E.Def.9.4)", "format": "cell-based"}, "Candida albicans": {"tested_on": "Candida albicans", "assay": "Susceptibility assay (MIC, broth microdilution, CLSI M27)", "format": "cell-based", "settings": "for MIC: 24 h; for NO dose at MIC: calculated NO dose at MIC"}, "C. auris (ATCC MYA-5001)": {"tested_on": "C. auris (ATCC MYA-5001)", "assay": "Checkerboard assay of NO donors with antifungals", "format": "cell-based, Candida auris"}, "Cryptococcus neoformans": {"tested_on": "Cryptococcus neoformans", "assay": "Susceptibility assay (MIC, broth microdilution, CLSI M27)", "format": "cell-based", "settings": "for MIC / NO dose at MIC: Cryptococcus neoformans; for MIC: 72 h; for NO dose at MIC: calculated NO dose at MIC"}, "C. auris (MYA-5001)": {"tested_on": "C. auris (MYA-5001)", "format": "cell-based, Candida auris"}, "Candida auris": {"tested_on": "Candida auris", "assay": "Susceptibility assay (MIC, broth microdilution, CLSI M27)", "format": "cell-based", "settings": "for MIC / NO dose at MIC: Candidozyma auris; for MIC: 24 h; for NO dose at MIC: calculated NO dose at MIC"}, "[4]": {"assay": "Characterization of NO release (chemiluminescence nitric oxide analyzer)", "format": "physicochemical", "settings": "phosphate-buffered saline 10 mM, pH 7.4, 37 °C"}, "[5]": {"tested_on": "MatTek EpiAirway tissue (AIR-100)", "assay": "cells", "format": "cell-based", "settings": "Homo sapiens, 24 h, read-out: IC50 (concentration needed to inhibit tissue viability by 50%)"}, "[6]": {"tested_on": "C. neoformans (ATCC 208821)", "assay": "Checkerboard assay of NO donors with antifungals", "format": "cell-based, Cryptococcus neoformans"}, "[7]": {"settings": "NO donor combined with 5-fluorocytosine"}, "[8]": {"settings": "NO donor combined with amphotericin B"}, "[9]": {"settings": "NO donor combined with butenafine"}, "[10]": {"settings": "NO donor combined with caspofungin"}, "[11]": {"settings": "NO donor combined with fluconazole"}, "[12]": {"settings": "NO donor combined with miconazole"}, "[13]": {"settings": "ATCC14053, Candida albicans ATCC 14053"}, "[14]": {"settings": "ATCC18804, Candida albicans ATCC 18804"}, "[15]": {"settings": "Cryptococcus neoformans ATCC MYA-4566"}, "[16]": {"settings": "Cryptococcus neoformans ATCC MYA-4567"}}, "data": [{"smiles": "NCCCNCCCCN(CCCN)/[N+]([O-])=N/O", "note": "[SPER/NO, spermine/NO]", "values": [{"measurement": "outcome of passaging at sub-MIC dose", "setting": "[1]", "result": "yeast death after the second passage"}, {"measurement": "checkerboard classification", "setting": "[2]; [7]", "result": "I (indifferent (I))"}, {"measurement": "∑FIC", "setting": "[2]; [7]", "result": "≥ 1"}, {"measurement": "checkerboard classification", "setting": "[2]; [8]", "result": "I (indifferent (I))"}, {"measurement": "∑FIC", "setting": "[2]; [8]", "result": "≥ 1"}, {"measurement": "checkerboard classification", "setting": "[2]; [9]", "result": "I (indifferent (I))"}, {"measurement": "∑FIC", "setting": "[2]; [9]", "result": "≥ 1"}, {"measurement": "checkerboard classification", "setting": "[2]; [10]", "result": "I (indifferent (I))"}, {"measurement": "∑FIC", "setting": "[2]; [10]", "result": "≥ 1"}, {"measurement": "checkerboard classification", "setting": "[2]; [11]", "result": "I (indifferent (I))"}, {"measurement": "∑FIC", "setting": "[2]; [11]", "result": "≥ 1"}, {"measurement": "checkerboard classification", "setting": "[2]; [12]", "result": "S (Synergistic (S))"}, {"measurement": "∑FIC", "setting": "[2]; [12]", "result": 0.265}, {"measurement": "Selectivity Index (IC50 AIR-100 / MIC)", "setting": "[3]; A. fumigatus ATCC 1022", "result": 293}, {"measurement": "MIC", "setting": "[3]; ATCC1022, Aspergillus fumigatus ATCC 1022 spores", "result": 70, "unit": "µg/mL"}, {"measurement": "NO dose at MIC", "setting": "[3]; ATCC1022, Aspergillus fumigatus ATCC 1022 spores, calculated NO dose at MIC", "result": 10.7, "unit": "µg/mL"}, {"measurement": "MIC", "setting": "Candida albicans; [13]", "result": 250, "unit": "µg/mL"}, {"measurement": "NO dose at MIC", "setting": "Candida albicans; [13]", "result": 38.6, "unit": "µg/mL"}, {"measurement": "MIC", "setting": "Candida albicans; [14]", "result": 150, "unit": "µg/mL"}, {"measurement": "NO dose at MIC", "setting": "Candida albicans; [14]", "result": 23.1, "unit": "µg/mL"}, {"measurement": "Selectivity Index (IC50 AIR-100 / MIC)", "setting": "Candida albicans; C. albicans ATCC 14053", "result": 82}, {"measurement": "Selectivity Index (IC50 AIR-100 / MIC)", "setting": "Candida albicans; C. albicans ATCC 18804", "result": 137}, {"measurement": "Selectivity Index (IC50 AIR-100 / MIC)", "setting": "Candida albicans; C. albicans ATCC MYA-2876", "result": 164}, {"measurement": "MIC", "setting": "Candida albicans; Candida albicans ATCC MYA-2876", "result": 125, "unit": "µg/mL"}, {"measurement": "NO dose at MIC", "setting": "Candida albicans; Candida albicans ATCC MYA-2876", "result": 19.2, "unit": "µg/mL"}, {"measurement": "checkerboard classification", "setting": "C. auris (ATCC MYA-5001); [7]", "result": "I (indifferent (I))"}, {"measurement": "∑FIC", "setting": "C. auris (ATCC MYA-5001); [7]", "result": "≥ 1"}, {"measurement": "checkerboard classification", "setting": "C. auris (ATCC MYA-5001); [8]", "result": "I (indifferent (I))"}, {"measurement": "∑FIC", "setting": "C. auris (ATCC MYA-5001); [8]", "result": "≥ 1"}, {"measurement": "checkerboard classification", "setting": "C. auris (ATCC MYA-5001); [9]", "result": "I (indifferent (I))"}, {"measurement": "∑FIC", "setting": "C. auris (ATCC MYA-5001); [9]", "result": "≥ 1"}, {"measurement": "checkerboard classification", "setting": "C. auris (ATCC MYA-5001); [10]", "result": "I (indifferent (I))"}, {"measurement": "∑FIC", "setting": "C. auris (ATCC MYA-5001); [10]", "result": "≥ 1"}, {"measurement": "checkerboard classification", "setting": "C. auris (ATCC MYA-5001); [11]", "result": "I (indifferent (I))"}, {"measurement": "∑FIC", "setting": "C. auris (ATCC MYA-5001); [11]", "result": "≥ 1"}, {"measurement": "checkerboard classification", "setting": "C. auris (ATCC MYA-5001); [12]", "result": "S (Synergistic (S))"}, {"measurement": "∑FIC", "setting": "C. auris (ATCC MYA-5001); [12]", "result": 0.375}, {"measurement": "Selectivity Index (IC50 AIR-100 / MIC)", "setting": "Cryptococcus neoformans; C. neoformans ATCC 208821", "result": 41}, {"measurement": "Selectivity Index (IC50 AIR-100 / MIC)", "setting": "Cryptococcus neoformans; C. neoformans ATCC MYA-4566", "result": 1079}, {"measurement": "Selectivity Index (IC50 AIR-100 / MIC)", "setting": "Cryptococcus neoformans; C. neoformans ATCC MYA-4567", "result": 263}, {"measurement": "MIC", "setting": "Cryptococcus neoformans; [15]", "result": 19, "unit": "µg/mL"}, {"measurement": "MIC", "setting": "Cryptococcus neoformans; [16]", "result": 78, "unit": "µg/mL"}, {"measurement": "MIC", "setting": "Cryptococcus neoformans; ATCC208821, 72 h, Cryptococcus neoformans ATCC 208821", "result": 500, "unit": "µg/mL"}, {"measurement": "NO dose at MIC", "setting": "Cryptococcus neoformans; ATCC208821, Cryptococcus neoformans ATCC 208821", "result": 76.8, "unit": "µg/mL"}, {"measurement": "NO dose at MIC", "setting": "Cryptococcus neoformans; [15]", "result": 3.08, "unit": "µg/mL"}, {"measurement": "NO dose at MIC", "setting": "Cryptococcus neoformans; [16]", "result": 12, "unit": "µg/mL"}, {"measurement": "change in MIC or MFCs after serial passaging", "setting": "C. auris (MYA-5001)", "result": "no changes"}, {"measurement": "Selectivity Index (IC50 AIR-100 / MIC)", "setting": "Candida auris; C. auris ATCC MYA-5000", "result": 164}, {"measurement": "Selectivity Index (IC50 AIR-100 / MIC)", "setting": "Candida auris; C. auris ATCC MYA-5001", "result": 82}, {"measurement": "Selectivity Index (IC50 AIR-100 / MIC)", "setting": "Candida auris; C. auris ATCC MYA-5003", "result": 164}, {"measurement": "MIC", "setting": "Candida auris; Candida auris ATCC MYA-5000", "result": 125, "unit": "µg/mL"}, {"measurement": "MIC", "setting": "Candida auris; Candida auris ATCC MYA-5001", "result": 250, "unit": "µg/mL"}, {"measurement": "MIC", "setting": "Candida auris; Candida auris ATCC MYA-5003", "result": 125, "unit": "µg/mL"}, {"measurement": "NO dose at MIC", "setting": "Candida auris; Candida auris ATCC MYA-5000", "result": 19.2, "unit": "µg/mL"}, {"measurement": "NO dose at MIC", "setting": "Candida auris; Candida auris ATCC MYA-5001", "result": 38.6, "unit": "µg/mL"}, {"measurement": "NO dose at MIC", "setting": "Candida auris; Candida auris ATCC MYA-5003", "result": 19.2, "unit": "µg/mL"}, {"measurement": "[NO]max, maximum instantaneous NO concentration", "setting": "[4]", "result": "7535 ± 222", "unit": "ppb mg^−1"}, {"measurement": "[NO]t, total NO released over full duration", "setting": "[4]", "result": "5.1 ± 0.2", "unit": "µmol/mg"}, {"measurement": "td, duration of NO release", "setting": "[4]", "result": "14.8 ± 2.9", "unit": "h"}, {"measurement": "IC50", "setting": "[5]", "result": 20000, "unit": "µg/mL"}, {"measurement": "checkerboard classification", "setting": "[6]; [7]", "result": "I (indifferent (I))"}, {"measurement": "∑FIC", "setting": "[6]; [7]", "result": "≥ 1"}, {"measurement": "checkerboard classification", "setting": "[6]; [8]", "result": "I (indifferent (I))"}, {"measurement": "∑FIC", "setting": "[6]; [8]", "result": "≥ 1"}, {"measurement": "checkerboard classification", "setting": "[6]; [9]", "result": "A (additive (A))"}, {"measurement": "∑FIC", "setting": "[6]; [9]", "result": 0.562}, {"measurement": "checkerboard classification", "setting": "[6]; [10]", "result": "I (indifferent (I))"}, {"measurement": "∑FIC", "setting": "[6]; [10]", "result": "≥ 1"}, {"measurement": "checkerboard classification", "setting": "[6]; [11]", "result": "I (indifferent (I))"}, {"measurement": "∑FIC", "setting": "[6]; [11]", "result": "≥ 1"}, {"measurement": "checkerboard classification", "setting": "[6]; [12]", "result": "S (Synergistic (S))"}, {"measurement": "∑FIC", "setting": "[6]; [12]", "result": 0.500}]}]}
